In patent US6800622B1, “Pyrene-linked pyrrolo[2,1-c][1,4]benzodiazepine hybrids useful as anti-cancer agents” (Council of Scientific and Industrial Research, priority 2003, dated 2004):

Key:
MCF7 (Breast) = experiment: In vitro one dose primary anticancer assay (NCI); assay type: cell-based, human; details: one dose at 10^−4 molar concentration
Experimental: (§1) In vitro biological activity studies were carried out at National Cancer Institute (USA).
(§2) Compounds Ve and Vg were evaluated the primary anti-cancer activity (Table 1) and further Ve have been evaluated in vitro against sixty human tumour cells derived from nine cancer types (leukemia, non-small-cell lung, colon, CNS, melanoma, ovarian, prostate, and breast cancer). For each compound, dose response curves for each cell line were measured at a minimum of five concentrations at 10 fold dilutions. A protocol of 48 h continuous drug exposure was used and a sulforhodamine B (SRB) protein assay was used to estimate cell viability or growth. The concentration causing 50% cell growth inhibition (GI50), total cell growth inhibition (TGI 0% growth) and 50% cell death (LC50, −50% growth) compared with the control was calculated.

NCI-H460 (Lung) = experiment: In vitro one dose primary anticancer assay (NCI); assay type: cell-based, human; details: one dose at 10^−4 molar concentration
Experimental: as §1, §2

SF-268 (CNS) = experiment: In vitro one dose primary anticancer assay (NCI); assay type: cell-based, human; details: one dose at 10^−4 molar concentration
Experimental: as §1, §2

sixty human tumour cells = experiment: NCI in vitro cytotoxicity, SRB assay, mean graph midpoints; assay type: cell-based; details: 48 h continuous drug exposure, human tumour cell lines
Experimental: as §1, §2

Structure (SMILES) | Growth percentages (Breast) MCF7 (MCF7 (Breast)) | Growth percentages (Lung) NCI-H460 (NCI-H460 (Lung)) | Growth percentages (CNS) SF-268 (SF-268 (CNS)) | Log10 TGI mean graph midpoint (MG_MID) (sixty human tumour cells)
COc1cc2c(cc1OCCCC(=O)Nc1ccc3ccc4cccc5ccc1c3c45)N=C[C@@H]1CCCN1C2=O [Ve, 7-Methoxy-8-[N-(1″-pyrenyl)-propane-3′-carboxamide]-oxy-(11aS)-1,2,3,11a tetra-hydro-5H-pyrrolo[2,1-c][1,4]benzodiazepin-5-one] | 31% | 11% | 70% | −6.89
COc1cc2c(cc1OCCCCC(=O)Nc1ccc3ccc4cccc5ccc1c3c45)N=C[C@@H]1CCCN1C2=O [Vg, 7-Methoxy-8-[N-(1″-pyrenyl)-butane-4′-carboxamide]-oxy-(11aS)-1,2,3,11a-tetra-hydro-5H-pyrrolo[2,1-c][1,4]benzodiazepin-5-one] | 72% | 106% | 131% | 
